# From ChEMBL document CHEMBL1144180, “Phenylethyl cinnamides: a new series of alpha-glucosidase inhibitors from the leaves of Aegle marmelos” (Bioorg Med Chem Lett, 2008)
# Calls of active or inactive are those of the source. The rule behind the calls is not given here.
# Columns and labels:
# [1] = Inhibition of alpha-glucosidase at 1.25 ug/ml
# [2] = Inhibition of alpha-glucosidase at 2.5 ug/ml
# [3] = Inhibition of alpha-glucosidase at 5.0 ug/ml
# [4] = Inhibition of alpha-glucosidase at 10.0 ug/ml
# [5] = Inhibition of alpha-glucosidase
Activity [1],Activity [2],Activity [3],inhibition [4],inhibition [3],inhibition [1],inhibition [2],IC50 [5],SMILES
inactive,inactive,inactive,12.6%,–,–,–,–,COc1ccc([C@@H](CNC(=O)/C=C/c2ccccc2)OC)cc1
inactive,inactive,–,19.7%,15.9%,–,–,–,CC(C)=CCOc1ccc(CCNC(=O)/C=C/c2ccccc2)cc1
inactive,inactive,–,8.8%,3.4%,–,–,–,COc1ccc([C@@H](CNC(=O)/C=C\c2ccccc2)O[C@@H]2O[C@H](CO)[C@@H](O)[C@H](O)[C@H]2O)cc1
–,–,–,17.6%,11.6%,4.6%,6.1%,–,COc1ccc([C@@H](CNC(=O)/C=C/c2ccccc2)O[C@@H]2O[C@H](CO)[C@@H](O)[C@H](O)[C@H]2O)cc1
–,–,–,13.5%,11.4%,1.5%,7.8%,–,COc1ccc([C@H](O)CNC(=O)c2ccccc2)cc1
–,–,–,30.1%,13.2%,1.3%,8.1%,–,CC(C)=CCOc1ccc(/C=C/NC(=O)/C=C/c2ccccc2)cc1
–,–,–,56.5%,25.2%,1.7%,7.5%,35.8 µM,COc1ccc(/C=C/NC(=O)/C=C/c2ccccc2)cc1 [ANHYDROAEGELINE]
–,–,–,36%,20.9%,5.3%,11.2%,–,COc1ccc([C@H](O)CNC(=O)/C=C/c2ccccc2)cc1
